This passage reports EC50 and Ki results from paper doi:10.1101/854513v2 (biorxiv, 2020).

Numbering of substitutions follows the chain as printed. Where two headings read alike, the source gives them in different places.

In experiment [1] the target is T1, hM4Di (Homo sapiens, UniProt P08173, A203G/Y113C).
T1 sequence (P08173 1-479 Y113C/A203G): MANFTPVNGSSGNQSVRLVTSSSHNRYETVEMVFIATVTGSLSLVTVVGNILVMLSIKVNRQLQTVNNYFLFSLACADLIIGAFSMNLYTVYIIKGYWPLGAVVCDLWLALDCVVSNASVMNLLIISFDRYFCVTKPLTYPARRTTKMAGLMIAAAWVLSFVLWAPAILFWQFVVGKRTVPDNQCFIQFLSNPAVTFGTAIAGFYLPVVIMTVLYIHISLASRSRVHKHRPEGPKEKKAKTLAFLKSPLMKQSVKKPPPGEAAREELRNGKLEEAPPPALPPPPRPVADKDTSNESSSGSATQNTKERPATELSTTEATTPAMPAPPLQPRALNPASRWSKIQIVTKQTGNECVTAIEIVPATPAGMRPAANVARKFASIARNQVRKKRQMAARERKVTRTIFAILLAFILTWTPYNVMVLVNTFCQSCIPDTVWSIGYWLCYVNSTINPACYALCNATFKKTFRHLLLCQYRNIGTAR
Nature of the experiment: BRET G protein dissociation. In kind it is cell-based. A general note: In BRET a luciferase serves as donor, and the signal depends on an acceptor being close.

Another experiment addresses hM3 (Homo sapiens, UniProt P20309). Nature of the experiment: biochemical. Format: binding.
Experiment [2] addresses T2, hM3Dq (Homo sapiens, UniProt P20309, A239G/Y149C). Nature of the experiment: cell-based.
The target in experiment [3] is T2, hM3Dq. Nature of the experiment: biochemical. In kind it is binding.
Another experiment concerns the target T3, hM4 (Homo sapiens, UniProt P08173).
T3 sequence (P08173 1-479): T1 sequence (P08173 1-479 Y113C/A203G) with C113Y, G203A
Nature of the experiment: [3H]QNB competition binding.

Experiment [4] deals with T1, hM4Di. Nature of the experiment: [3H]QNB competition binding.
The target of a further experiment is T4, hM1 (Homo sapiens, UniProt P11229).
T4 sequence (P11229 1-460): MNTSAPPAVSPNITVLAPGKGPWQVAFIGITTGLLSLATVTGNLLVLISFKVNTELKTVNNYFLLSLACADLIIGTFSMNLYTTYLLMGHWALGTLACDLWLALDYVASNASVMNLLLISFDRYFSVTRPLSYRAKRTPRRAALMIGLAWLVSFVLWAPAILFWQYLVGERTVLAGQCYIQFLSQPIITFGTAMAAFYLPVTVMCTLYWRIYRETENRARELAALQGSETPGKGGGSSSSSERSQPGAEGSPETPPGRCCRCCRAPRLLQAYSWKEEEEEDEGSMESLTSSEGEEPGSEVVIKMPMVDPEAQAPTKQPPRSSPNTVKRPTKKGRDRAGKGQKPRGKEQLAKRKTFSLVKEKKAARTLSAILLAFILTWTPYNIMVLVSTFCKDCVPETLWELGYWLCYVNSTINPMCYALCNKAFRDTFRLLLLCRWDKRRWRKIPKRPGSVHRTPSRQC
Nature of the experiment: radioligand competition binding. Background: In a radioligand displacement assay an active substance lowers the binding of a labelled ligand.

For a further experiment, the target named is T5, hM5 (Homo sapiens, UniProt P08912).
T5 sequence (P08912 1-532): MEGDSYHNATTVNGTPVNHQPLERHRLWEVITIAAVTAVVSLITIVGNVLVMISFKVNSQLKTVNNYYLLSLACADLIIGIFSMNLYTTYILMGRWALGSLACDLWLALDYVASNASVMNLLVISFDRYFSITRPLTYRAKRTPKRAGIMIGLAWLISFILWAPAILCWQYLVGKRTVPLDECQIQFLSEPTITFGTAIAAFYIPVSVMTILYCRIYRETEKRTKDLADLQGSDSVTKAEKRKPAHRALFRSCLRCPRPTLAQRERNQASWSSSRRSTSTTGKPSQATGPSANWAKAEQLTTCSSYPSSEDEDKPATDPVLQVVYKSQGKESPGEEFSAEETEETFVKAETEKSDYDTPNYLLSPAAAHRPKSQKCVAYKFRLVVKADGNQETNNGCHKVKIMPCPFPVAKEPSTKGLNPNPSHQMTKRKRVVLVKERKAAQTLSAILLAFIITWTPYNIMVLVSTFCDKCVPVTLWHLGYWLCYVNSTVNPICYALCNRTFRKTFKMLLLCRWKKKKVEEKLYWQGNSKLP
Nature of the experiment: radioligand competition binding.

hM3, sequence (P20309 whole entry): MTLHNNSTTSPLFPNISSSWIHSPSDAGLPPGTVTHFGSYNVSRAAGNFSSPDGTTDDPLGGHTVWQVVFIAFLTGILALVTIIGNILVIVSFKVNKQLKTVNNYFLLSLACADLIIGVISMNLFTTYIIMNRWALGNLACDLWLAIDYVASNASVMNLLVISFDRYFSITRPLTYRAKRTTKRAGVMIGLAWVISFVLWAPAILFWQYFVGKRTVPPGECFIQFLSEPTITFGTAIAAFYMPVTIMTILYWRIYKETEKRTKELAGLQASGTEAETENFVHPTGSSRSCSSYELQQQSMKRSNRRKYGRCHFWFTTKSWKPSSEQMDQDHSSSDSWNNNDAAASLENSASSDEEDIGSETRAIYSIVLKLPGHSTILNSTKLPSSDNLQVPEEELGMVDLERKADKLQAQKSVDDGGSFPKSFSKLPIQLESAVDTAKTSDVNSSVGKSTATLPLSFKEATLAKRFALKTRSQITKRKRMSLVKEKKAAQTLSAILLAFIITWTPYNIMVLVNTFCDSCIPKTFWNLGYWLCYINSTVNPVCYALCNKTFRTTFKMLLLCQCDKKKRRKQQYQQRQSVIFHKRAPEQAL
T2 sequence (P20309 whole entry Y149C/A239G): as the sequence (P20309 whole entry) above, with Y149C, A239G counted along it

The term EC50 denotes the midpoint of the concentration-response curve. Broadly, the Ki is a measure of affinity in units of concentration, obtained from inhibition or displacement. For the molecule `c1ccc2c(c1)N=C(N1CCNCC1)c1ccccc1N2` [C21], the EC50 is 2.6 nM on hM4Di [1] and 5.2 nM at hM3Dq [2]. Moreover, the Ki on hM3 (HEK293T, [3H]QNB […]) is 270 nM; at hM3Dq [3], 850 nM.
As to `C[N+]1([O-])CCN(C2=Nc3cc(Cl)ccc3Nc3ccccc32)CC1` [CNO], the EC50 came to 7.3 nM at hM4Di [1] and 15 nM on hM3Dq [2]. Besides, the Ki at hM4 came to 3700 nM; on hM4Di [4], 360 nM; on hM3, 2600 nM; on hM3Dq [3], 680 nM.
On to `CN1CCN(C2=Nc3ccccc3Nc3ccccc32)CC1` [DCZ, 11-(4-methyl-1-piperazinyl)-5H-dibenzo(b,e)(1,4)diazepine], for which the EC50 on hM4Di [1] was determined as 0.081 nM; on hM3Dq [2], 0.13 nM. The Ki on hM1 stood at 83 nM; on hM4, 210 nM; on hM4Di [4], 4.2 nM; at hM3 it was 230 nM; on hM5 it was 55 nM; at hM3Dq [3] it was 6.3 nM.
